From patent US6887878B2, “KMST isoeugenol derivatives and pharmaceutical activity” (Ing-Jun Chen, priority 2003, dated 2005)
Entries after “also recorded” stand apart in the source; their conditions may differ. Where two headings read alike, the source gives them in different places.

Experiments:
[1] = test system: rats; assay: LPS-induced mortality; conditions: rat, in vivo
[2] = target: T1, 5-HT re-uptake (Rattus norvegicus, UniProt P31652); assay: 5-HT re-uptake in cerebral cortex synaptosomes; format: biochemical, Wistar rat; conditions: read-out: IC50 of 5-HT uptake inhibition
T1 construct: the cerebral cortex or striatum was dissected and crude synaptosomes were prepared; from tissue; host or cells: crude synaptosomes of Wistar rat cerebral cortex
Protocol: Wistar rats weighting 150-200 g were decapitated, the cerebral cortex or striatum was dissected and crude synaptosomes were prepared. […] Uptake was initiated by the addition of 50 μl of [^3H] […] Saline was added to the incubation mixture, which was then filtered through a Whatman GF/B glass filter under reduced pressure. To determine nonspecific uptake, incubation was performed at 0° C.

[3] = target: T2, 5-HT1A (Rattus norvegicus, UniProt P19327); assay: [3H]WAY100635 receptor binding; conditions: read-out: Ki 5-HT1A; [3H]WAY100635
T2 sequence (P19327 1-422): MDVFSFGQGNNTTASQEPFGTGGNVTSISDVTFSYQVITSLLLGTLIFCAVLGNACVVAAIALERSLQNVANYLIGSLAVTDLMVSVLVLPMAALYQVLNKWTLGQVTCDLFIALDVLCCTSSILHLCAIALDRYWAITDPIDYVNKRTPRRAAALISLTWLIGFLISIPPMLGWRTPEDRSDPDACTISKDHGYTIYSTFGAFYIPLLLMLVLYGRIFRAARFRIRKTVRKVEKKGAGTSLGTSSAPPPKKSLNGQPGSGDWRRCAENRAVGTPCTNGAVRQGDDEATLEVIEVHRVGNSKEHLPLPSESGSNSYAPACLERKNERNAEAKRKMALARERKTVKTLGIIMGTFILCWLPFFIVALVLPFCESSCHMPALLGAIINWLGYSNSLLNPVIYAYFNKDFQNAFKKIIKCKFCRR

[4] = test system: anesthetized rats; assay: LPS-induced hypotension; format: in vivo, Wistar rat; conditions: pretreatment, intravenous LPS
Protocol: In brief, Wistar rats weighing 250-300 g were anesthetized with pentobarbital sodium (50 mg kg^−1, i.p.). Following tracheal cannulation, systemic arterial BP and HR were recorded from the femoral artery by a pressure transducer (model P10EZ; Spectramed, Oxnard, Calif., U.S.A.) connected to a recorder (GOULD, Valley View, Ohio, Model P50). Body temperature was maintained at 37° C. by an electric heating pad. A femoral vein was cannulated for intravenous injection of drugs and LPS (10 mg kg^−1).

[5] = target: 5-HT2A receptor (Rattus norvegicus, UniProt P14842); assay: 5-HT-induced contraction in isolated rat thoracic aorta (pA2); set-up: Rat thoracic aorta was removed, cleaned of adhering fat and connective tissue; from tissue; host or cells: Wistar rat thoracic aorta rings; species or system Wistar rat; conditions: Schild plot, mean ± SEM of eight, listed as KMST
Protocol: (§1) Clonidine, noradrenaline and serotonin (10^−8˜10^−4 M) were added to the bath to induce contractions after pretreatment with KMST for 15 min.

[6] = test system: serotonin-induced human platelet aggregation; assay: serotonin-induced human platelet aggregation; format: cell-based; conditions: serotonin 5 μM, PRP; read-out: IC50 serotonin-induced human platelet aggregation
Protocol: Venous blood from human volunteer donors was collected in 10 ml Monovette containing 1 ml citrate solution (0.106M trisodium citrate; Sarstedt, Nümbrecht, Germany) and centrifuged (400 g, 10 min, 20° C.). […] After centrifugation (10 min, 2000 g, 20° C.), the platelet pellet was resuspended in wishing buffer (113 mM NaCl, 4 mM Na2HPO4, 24 mM NaH2PO4, 4 mM KCl, 0.2 mM EGTA(Ethylene glycol-bis-(2-aminoethyl ether) N,N,N′-tetraacetic acid), 0.1% (wt/vol) glucose, pH 6.0) and recentrifuged (10 min, 2000 g, 20° C.). The washed platelets were resuspended in incubation buffer (134 mM NaCl, 12 mM NaHCO3, 2.9 mM KCl, 0.34 mM NaH2PO4, 5 mM HEPES (N-(2-hydroxyethyl) piperazine-N′-(2-ethanesulfonic acid)), 5 mM glucose, pH7.4), cells were counted in a Sysmex hematology analyzer (Sysmex, CDA-500, Japan) and adjusted to a final concentration of 2×10^8 platelets/ml.
The aggregation of the platelets in platelet-rich plasma (PRP) was measured as a change in light absorbance by a Payton dual-channel aggregometer (NBS, Hema tracer, Japan). PRP (240 μL) was stirred (700 rpm) at 37° C. for 1 min, and 5 μL epinephrine (final concentration 5 μM), serotonin (final concentration 5 μM) was added. After which the rate of primary aggregation (1/min) and maximum aggregation (%) at 5 min were recorded. To study the effects of compounds on epinephrine or serotonin-induced aggregation, PRP was incubated with 5 μL of compounds at various concentrations for 1 min before epinephrine or serotonin was added. IC50 values given were calculated from the secondary aggregation data.

[7] = target: α2 receptors; assay: [3H]yohimbine receptor binding in rat cortex; set-up: species or system Wistar rat
Protocol: The homogenate was pressure filtered through muslin. Filtrate was centrifuged at 1000 g for 10 min. […] Protein content was determined by Bradford's method.

[8] = test system: phenylephrine-induced contractions in rat thoracic aorta; assay: LPS-induced vascular hyporeactivity: phenylephrine-induced contractions in rat thoracic aorta; format: in vivo, Wistar rat; conditions: for pD2 at 3rd hr / pD2 at 5th hr: pD2 to phenylephrine
[9] = test system: lipid peroxidation in rat brain homogenate; assay: lipid peroxidation initiated by Fe2+-ascorbic acid in rat brain homogenates (TBARS); format: biochemical
Protocol: Rat brain homogenate was made in 0.9% saline containing 10 mg tissue/ml. The rates of membrane lipid peroxidation were measured by the formation of thiobarbituric acid (TBA)-reactive substance (TBARS). Rat brain homogenates (1 ml) were incubated at 37° C. for 5 min with 10 μl of test compound or vehicle. […] After 30 min of incubation, the reaction was stopped by adding 0.1 ml of 0.2% BHT. TBA reagent was then added and the mixture was heated for 30 min in a boiling water bath. […] The amount of TBARS was quantified using the linear regression obtained from malondialdehyde (MDA) standards.

[10] = test system: α1-adrenergic receptor; assay: noradrenaline-induced contraction in isolated rat thoracic aorta (pA2); set-up: species or system Wistar rat; conditions: Schild plot, mean ± SEM of eight, listed as KMST
Protocol: as §1

[11] = agent given after LPS injection (1 hr)
[12] = agent given before LPS injection (30 min)

Chain of 5-HT2A receptor (P14842 whole entry): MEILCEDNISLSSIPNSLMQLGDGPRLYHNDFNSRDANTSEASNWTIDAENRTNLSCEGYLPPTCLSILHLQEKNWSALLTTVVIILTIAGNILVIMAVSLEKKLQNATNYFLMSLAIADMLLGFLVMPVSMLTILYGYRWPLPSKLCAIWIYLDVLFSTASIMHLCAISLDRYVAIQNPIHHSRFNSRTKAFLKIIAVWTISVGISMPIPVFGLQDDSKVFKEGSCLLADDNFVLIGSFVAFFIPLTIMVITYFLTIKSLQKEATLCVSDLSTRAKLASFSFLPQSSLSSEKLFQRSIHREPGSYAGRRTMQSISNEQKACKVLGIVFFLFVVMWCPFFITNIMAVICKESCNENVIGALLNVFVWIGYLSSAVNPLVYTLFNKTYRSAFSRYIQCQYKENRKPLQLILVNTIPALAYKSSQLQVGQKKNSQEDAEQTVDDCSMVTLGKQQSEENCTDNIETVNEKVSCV
T1 sequence (P31652 whole entry): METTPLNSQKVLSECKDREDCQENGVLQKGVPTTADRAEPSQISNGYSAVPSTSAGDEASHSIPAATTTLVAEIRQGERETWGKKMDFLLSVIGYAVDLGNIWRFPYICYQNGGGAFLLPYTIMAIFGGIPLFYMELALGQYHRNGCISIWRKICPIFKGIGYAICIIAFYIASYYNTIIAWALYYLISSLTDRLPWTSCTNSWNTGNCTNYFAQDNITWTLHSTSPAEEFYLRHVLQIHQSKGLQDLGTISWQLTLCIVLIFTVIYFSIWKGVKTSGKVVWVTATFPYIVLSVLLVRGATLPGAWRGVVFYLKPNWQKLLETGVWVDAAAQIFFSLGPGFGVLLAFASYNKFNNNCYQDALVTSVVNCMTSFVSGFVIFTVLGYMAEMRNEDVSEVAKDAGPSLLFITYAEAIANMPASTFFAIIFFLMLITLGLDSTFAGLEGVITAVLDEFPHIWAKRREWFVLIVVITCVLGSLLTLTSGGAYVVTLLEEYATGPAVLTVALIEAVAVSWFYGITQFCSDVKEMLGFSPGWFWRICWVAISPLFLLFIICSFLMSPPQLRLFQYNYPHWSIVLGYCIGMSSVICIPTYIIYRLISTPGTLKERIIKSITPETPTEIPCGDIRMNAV

For `CC=Cc1ccc(OCC(O)CN2CCN(c3cccc(Cl)c3)CC2)c(OC)c1` (stereo not shown) [Compound 1], the LPS-induced death [1] was “did not prevent”, the “survival time after LPS” value [1] was “did prolong survival time” and the IC50 [2] was 34300 nM. The Ki [3] was > 10000 nM, the “aortic hyporeactivity and second prolonged hypotensive reaction induced by LPS” value [4] was “inhibited” and the “5-HT2A pA2 value” [5] was 8.68±0.12. The IC50 [6] was 3.63 nM, the Ki [7] was 1840 nM and the Ki ([7]; listed as KMST) was 1390 nM. The “aortic contractility of LPS-treated rats versus vehicle group” value ([8]; 1 mg kg−1 i.v. before or after application of LPS, listed as KMST) was “improved the aortic contractility better than in vehicle group; also recorded: increased aortic contractility more than the vehicle group”, the “pD2 at 3rd hr” value [8, 11] was 6.29 ± 0.08 and the “pD2 at 5th hr” value [8, 11] was 5.57 ± 0.17. For the same molecule, the “pD2 at 3rd hr” value [8, 12] was 7.16 ± 0.18, the “pD2 at 5th hr” value [8, 12] was 6.29 ± 0.11 and the “potency of KMST relative to ascorbic acid, lipid peroxidation” value ([9]; rat brain homogenate) was ~3 times. For the same molecule, the “potency of KMST relative to trazodone, lipid peroxidation” value ([9]; rat brain homogenate) was ~30 times, the “potency of KMST relative to yohimbine, lipid peroxidation” value ([9]; rat brain homogenate) was “approximately 5 times” and the IC50 ([9]; rat brain homogenates, listed as KMST, read-out: IC50 inhibiting lipid peroxidation initiated by Fe2+-ascorbic acid) was 2680 nM. For the same molecule, the “α1 pA2 value” [10] was 7.97±0.39.
